Source: patent US20080051429A1, “USE OF 4-AMINO-PIPERIDINES FOR TREATING SLEEP DISORDERS” (priority 2006, published 2008)

System: healthy volunteers
Assay: Polysomnography (PSG) sleep study, double-blind, placebo-controlled
Type: in vivo, human
Description: A double-blind, placebo-controlled study involving 45 healthy volunteers ranging in age from 40 to 64 was conducted. […] All subjects underwent a two-night screening and baseline PSG evaluation. Additional PSG measurements were performed on the evening of study days 1 and 13. The subjects also completed a Continuous Performance Test (CPT) to assess the potential impact on daytime functioning. […] Of the 45 subjects, 20 of them also underwent a positron emission tomography (PET) study to measure 5-HT2A brain receptor occupancy.
During an assessment period, participants stayed overnight in the clinic for […] from Day −1 to Day 2 and one night from Day 13 to Day 14. Participants underwent a one-night PSG evaluation on the evening of Day 1, following the first dose of treatment and a final one-night PSG evaluation on the evening of Day 13. Between Day 3 and Day 12, participants were at home.
Polysomnographic recordings were performed from 23:00 to 07:00 on the following day.
The drug was dispensed as a solution (in vials) per os (p.o.), in a double-blind fashion as determined by the randomization schedule. The content of the vials was completely consumed followed by the consumption of one vial of water.
Data Analysis: A multivariate analyses of variance (MANOVA) with 5 clusters of sleep parameters as dependent variables (sleep continuity architecture and profile parameters for the visual analysis, and NREM and REM parameters for the spectral power analysis as shown in Table 1) was conducted initially. Change from baseline to the last day of drug administration was assessed by an analysis of covariance with repeated measures (ANCOVA®), with the baseline variables as covariates, to detect group differences (drug at each dose versus placebo) in the PSG sleep findings. For each ANCOVA, two main effects (Treatment, 4 levels, and Study Day, 2 levels) and their interaction were analyzed. Drug to placebo contrasts were calculated as a whole (Day 1 and Day 13 combined) as well as separately for each Study Day. Change from baseline to the last day of drug administration, by group, on the results of the CPT was also analyzed. Additional pharmacodynamic analysis, including the electrographic results obtained on Study Day 1, was performed. SAS® Version 8.2 was used for non-pharmacokinetic parameters and WinNonLin V4.0 was used to compute all pharmacokinetic parameters.

CC(C)COc1ccc(CNC(=O)N(Cc2ccc(F)cc2)C2CCN(C)CC2)cc1 [N-(1-methylpiperidin-4-yl)-N-(4-fluorophenylmethyl)-N′-(4-(2-methylpropyloxy)phenylmethyl)carbamide]
Change in Slow Wave Sleep From Baseline (1 mg, Day 1): 6.4 min | Change in Slow Wave Sleep From Baseline, Percentage (1 mg, Day 1): 10% | Duration (min) of wake after sleep onset (1 mg, Day 1): 47.67 min | Number of awakenings after sleep onset (1 mg, Day 1): 20.22 | SWS duration (1 mg, Day 1): 69.78 min | Change in Slow Wave Sleep From Baseline (1 mg, Day 13): 5.4 min | Change in Slow Wave Sleep From Baseline, Percentage (1 mg, Day 13): 9% | Duration (min) of wake after sleep onset (1 mg, Day 13): 40.06 min | Number of awakenings after sleep onset (1 mg, Day 13): 20.78 | SWS duration (1 mg, Day 13): 68.78 min | NREM sleep % (2.5 mg, C): ↑ (↑, <.05) | NREM sleep duration (2.5 mg, C): ↑ (↑, <.05) | SWS 2nd third (2.5 mg, C): ↑↑ (↑↑, <.01) | SWS % (2.5 mg, C): ↑↑ (↑↑, <.01) | Stage 3% (2.5 mg, C): ↑ (↑, <.05) | Stage 3 duration (2.5 mg, C): ↑ (↑, <.05) | Stage 4% (2.5 mg, C): ↑ (↑, <.05) | Stage 4 duration (2.5 mg, C): ↑ (↑, <.05) | SWS 2nd third (2.5 mg, D1): ↑ (↑, <.05) | SWS % (2.5 mg, D1): ↑ (↑, <.05) | Stage 3% (2.5 mg, D1): ↑ (↑, <.05) | Stage 3 duration (2.5 mg, D1): ↑ (↑, <.05) | NREM sleep % (2.5 mg, D13): ↑↑ (↑↑, <.01) | NREM sleep duration (2.5 mg, D13): ↑ (↑, <.05) | Change in Slow Wave Sleep From Baseline (2.5 mg, Day 1): 21.8 min | Change in Slow Wave Sleep From Baseline, Percentage (2.5 mg, Day 1): 40% | Duration (min) of wake after sleep onset (2.5 mg, Day 1): 51.00 min | Number of awakenings after sleep onset (2.5 mg, Day 1): 21.44 | SWS duration (2.5 mg, Day 1): 75.83 min | Change in Slow Wave Sleep From Baseline (2.5 mg, Day 13): 19.6 min | Change in Slow Wave Sleep From Baseline, Percentage (2.5 mg, Day 13): 36% | Duration (min) of wake after sleep onset (2.5 mg, Day 13): 30.44 min | Number of awakenings after sleep onset (2.5 mg, Day 13): 19.78 | SWS duration (2.5 mg, Day 13): 73.61 min | SWS 1st third (5 mg, C): ↑↑ (↑↑, <.01) | SWS 2nd third (5 mg, C): ↑↑ (↑↑, <.01) | SWS % (5 mg, C): ↑↑ (↑↑, <.01) | Stage 1% (5 mg, C): ↓ (↓, <.05) | Stage 2% (5 mg, C): ↓ (↓, <.05) | Stage 3% (5 mg, C): ↑ (↑, <.05) | Stage 3 duration (5 mg, C): ↑ (↑, <.05) | Stage 4% (5 mg, C): ↑↑ (↑↑, <.01) | Stage 4 duration (5 mg, C): ↑↑ (↑↑, <.01) | SWS 1st third (5 mg, D1): ↑↑ (↑↑, <.01) | SWS % (5 mg, D1): ↑↑ (↑↑, <.01) | Stage 1% (5 mg, D1): ↓ (↓, <.05) | Stage 2% (5 mg, D1): ↓ (↓, <.05) | Stage 3% (5 mg, D1): ↑ (↑, <.05) | Stage 3 duration (5 mg, D1): ↑ (↑, <.05) | Stage 4% (5 mg, D1): ↑↑ (↑↑, <.01) | Stage 4 duration (5 mg, D1): ↑↑ (↑↑, <.01) | SWS 1st third (5 mg, D13): ↑ (↑, <.05) | SWS 2nd third (5 mg, D13): ↑ (↑, <.05) | SWS % (5 mg, D13): ↑↑ (↑↑, <.01) | Stage 4% (5 mg, D13): ↑↑ (↑↑, <.01) | Stage 4 duration (5 mg, D13): ↑↑ (↑↑, <.01) | Change in Slow Wave Sleep From Baseline (5 mg, Day 1): 37.3 min | Change in Slow Wave Sleep From Baseline, Percentage (5 mg, Day 1): 65% | Duration (min) of wake after sleep onset (5 mg, Day 1): 64.56 min | Number of awakenings after sleep onset (5 mg, Day 1): 20.67 | SWS duration (5 mg, Day 1): 94.89 min | Change in Slow Wave Sleep From Baseline (5 mg, Day 13): 41.9 min | Change in Slow Wave Sleep From Baseline, Percentage (5 mg, Day 13): 73% | Duration (min) of wake after sleep onset (5 mg, Day 13): 43.89 min | Number of awakenings after sleep onset (5 mg, Day 13): 21.78 | SWS duration (5 mg, Day 13): 99.56 min | duration and proportion of wake after sleep onset (20 mg): decreased | NREM sleep % (20 mg, C): ↑↑ (↑↑, <.01) | NREM sleep duration (20 mg, C): ↑ (↑, <.05) | SWS 1st third (20 mg, C): ↑↑ (↑↑, <.01) | SWS 2nd third (20 mg, C): ↑↑ (↑↑, <.01) | SWS % (20 mg, C): ↑↑ (↑↑, <.01) | Stage 2 duration (20 mg, C): ↓ (↓, <.05) | Stage 3% (20 mg, C): ↑ (↑, <.05) | Stage 3 duration (20 mg, C): ↑ (↑, <.05) | Stage 4% (20 mg, C): ↑↑ (↑↑, <.01) | Stage 4 duration (20 mg, C): ↑↑ (↑↑, <.01) | SWS 2nd third (20 mg, D1): ↑↑ (↑↑, <.01) | SWS % (20 mg, D1): ↑↑ (↑↑, <.01) | Stage 2 duration (20 mg, D1): ↓ (↓, <.05) | Stage 4% (20 mg, D1): ↑↑ (↑↑, <.01) | Stage 4 duration (20 mg, D1): ↑↑ (↑↑, <.01) | NREM sleep % (20 mg, D13): ↑↑ (↑↑, <.01) | SWS 2nd third (20 mg, D13): ↑↑ (↑↑, <.01) | SWS % (20 mg, D13): ↑↑ (↑↑, <.01) | Stage 4% (20 mg, D13): ↑↑ (↑↑, <.01) | Stage 4 duration (20 mg, D13): ↑↑ (↑↑, <.01) | Change in Slow Wave Sleep From Baseline (20 mg, Day 1): 46.0 min | Change in Slow Wave Sleep From Baseline, Percentage (20 mg, Day 1): 55% | Duration (min) of wake after sleep onset (20 mg, Day 1): 33.44 min | Number of awakenings after sleep onset (20 mg, Day 1): 20.89 | SWS duration (20 mg, Day 1): 129.94 min | Change in Slow Wave Sleep From Baseline (20 mg, Day 13): 39.0 min | Change in Slow Wave Sleep From Baseline, Percentage (20 mg, Day 13): 46% | Duration (min) of wake after sleep onset (20 mg, Day 13): 29.89 min | Number of awakenings after sleep onset (20 mg, Day 13): 18.89 | SWS duration (20 mg, Day 13): 122.94 min | REM sleep duration, proportion of REM sleep, REM sleep latency, REM activity or REM density (in words): no effect | latency to sleep onset (in words): did not alter | number of awakenings after sleep onset, drug to placebo contrasts (the 4 doses, most significant in 2.5 mg and 5 mg groups): significantly decreased
